Columns and labels:
MC3T3-E1 cells [1] = test: ELISA of 25-D3 and 1,25-D3 released to the culture media, plastic wells; assay type: cell-based, mouse; details: TCP, 48 hours, 2×10^−3 to 20 nmols
Experimental: To test the effect of the different treatments onto the plastic wells, 96-well plates made of polystyrene were used and the treatments with 7-DHC performed directly onto them. Cells grown onto untreated TCP were added as a control for all the experiments. Cells were seeded at a density of 30,000 cells/cm^2 and they were maintained in α-MEM supplemented with 10% FCS and antibiotics. Culture media was collected after 48 hours, to test cytotoxicity and the production of the hydroxylated forms of vitamin D. Cells were harvested after 2 days of culture using Trizol reagent (Roche Diagnostics, Mannheim, Germany), to analyse early gene expression response of several osteoblast differentiation markers and enzymes involved in vitamin D synthesis using real-time RT-PCR.
25-D3 and 1,25-D3 released to the culture media after two days of treatment were analyzed by enzyme-linked immunosorbent assay (ELISA). Aliquots from the culture media were centrifuged at 1800 rpm for 5 minutes at 4° C. and supernatants were used for 25-D3 and 1,25-D3 determination following instructions described by the manufacturer (Immunodiagnostic Systems Ltd, Boldon, Tyne and Wear, UK).

MC3T3-E1 cells [2] = test: ALP activity in cell monolayer on coated titanium implants; assay type: cell-based, mouse; details: Ti implants, day 21
Experimental: To test the effect of the surface modification, 96-well plates were used. Ti disks were placed into the wells and treatments and UV-activation were performed over there. Cells grown onto untreated polystyrene tissue culture plastic (TCP) were added as a control for all the experiments. Cells were seeded at a density of 30,000 cells/cm^2 and they were maintained in α-MEM supplemented with 10% FCS and antibiotics. Culture media was collected after 48 hours, to test cytotoxicity and the production of the hydroxylated form of vitamin D, 25-D3. Cells were harvested after two days of culture using Trizol reagent (Roche Diagnostics, Mannheim, Germany), to analyze gene expression of several osteoblast differentiation markers and enzymes involved in vitamin D synthesis using real-time RT-PCR. On the other hand, MC3T3-E1 cells were harvested after 21 days to measure calcium content and ALP activity in the cell monolayer.
Cell monolayer was collected at 21 cell differentiation days and PBS 0.1% Triton X-100 was added to solubilize proteins. Cell lysates were put into freeze/thaw cycles (liquid nitrogen and 37° C. water bath) to improve protein recovery. After centrifugation at 33,000 g for 15 min at 4° C., supernatants acquired were assayed for ALP activity, calcium content and total protein determination. ALP activity was calculated by measuring the cleavage of p-Nitrophenyl Phosphate (pNPP) (Sigma, St. Louis, Mo., USA) in a soluble yellow end product which absorbs at 405 nm. A volume of 100 μl of this substrate was used in combination with 25 μl of each sample supernatant or standard point. The standard curve was prepared from calf intestinal alkaline phosphatase (CIAP, 1 U/μl) (Promega, Madison, Wis., USA) by mixing 1 μl from the stock CIAP with 5 ml of alkaline phosphatase buffer (1:5000 dilution), and then making 1:5 serial dilutions. Once the reaction was carried out, after 30 min in dark at room temperature, it was stopped with the addition of 50 μl of 3 M sodium hydroxide. At this point, absorbance was read at 405 nm.
Total protein was determined using a BCA protein assay kit (Pierce, Rockford, Ill., USA). For the analysis, cell supernatants were diluted 1:1 in PBS 0.1% Triton X-100. Standard curve and samples were analyzed as described by the manufacturer and reading the absorbance at 562 nm.

CC(C)CCC[C@@H](C)[C@H]1CC[C@H]2C3=CC=C4C[C@@H](O)CC[C@]4(C)[C@H]3CC[C@]12C [7-DHC, 7-dehydrocholesterol]
Production of 25-D3 and 1,25-D3 (dose-response) (MC3T3-E1 cells [1]; activated by UV irradiation): a dose-response was found
Production of 25-D3 and 1,25-D3 (dose-response) (MC3T3-E1 cells [1]; not UV-treated): no dose-response was detected
ALP activity (MC3T3-E1 cells [2]; UV-treated vs UV-untreated group): significant higher ALP activity
ALP activity (MC3T3-E1 cells [2]; UV-untreated, percentage of ethanol UV-untreated group set to 100%, mean±SEM): 44.75±3.50%

— patent publication US8821568B2, “Implant modified with non-hydroxylated vitamin D precursors” (Numat Biomedical S.L., priority 2008, dated 2014)
